# Earlier results, collected in patent publication US9028802B2, “Method of differentially diagnosing different types of dementia” (Koninklijke Philips Electronics N.V., priority 2007, dated 2015).
# Molecular target: T1, Dopamine Transporter (DAT) (Homo sapiens, UniProt Q01959)
# T1 construct: those areas of the brain in which Dopamine Transporters (DAT) are localized, such as the nigrostriatum; from tissue; host or cells: brain (nigrostriatum) of the living subject, in vivo SPECT
# Details: SPECT tracer, time point x2 after administration; 'typically'
# T1 sequence (Q01959 whole entry): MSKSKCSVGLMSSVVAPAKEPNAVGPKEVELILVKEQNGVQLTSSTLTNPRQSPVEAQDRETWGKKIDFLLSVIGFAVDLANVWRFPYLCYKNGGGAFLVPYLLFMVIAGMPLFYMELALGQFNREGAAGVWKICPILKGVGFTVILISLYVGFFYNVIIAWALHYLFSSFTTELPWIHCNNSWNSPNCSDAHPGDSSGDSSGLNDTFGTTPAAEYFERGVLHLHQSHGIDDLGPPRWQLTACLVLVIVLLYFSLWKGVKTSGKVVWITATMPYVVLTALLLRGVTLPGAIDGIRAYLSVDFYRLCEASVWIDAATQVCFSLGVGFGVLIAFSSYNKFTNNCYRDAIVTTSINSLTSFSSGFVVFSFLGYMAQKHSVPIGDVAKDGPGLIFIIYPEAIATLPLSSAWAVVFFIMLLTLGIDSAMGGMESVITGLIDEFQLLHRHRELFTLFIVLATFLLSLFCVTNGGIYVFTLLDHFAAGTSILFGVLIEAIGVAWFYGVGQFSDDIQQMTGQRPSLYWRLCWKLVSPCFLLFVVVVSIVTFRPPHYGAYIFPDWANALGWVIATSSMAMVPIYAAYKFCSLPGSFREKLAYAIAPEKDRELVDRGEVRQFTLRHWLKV
smiles,measurement,value
COC(=O)C1C2CCC(C[C@@H]1c1ccc(I)cc1)N2CCCF (stereo partly shown) [Datscan],time period after which association with Dopamine Transporters is observed,three to four
